From US8106197B2, “Aminoheteroaryl compounds as protein kinase inhibitors” (Pfizer Inc., priority 2003, dated 2012)

Biological target: T1, HGFR (Homo sapiens, UniProt P08581)
T1 construct: purchased Upstate 14-526
Experiment: HGFR continuous-coupled spectrophotometric assay
Format: biochemical
Settings: for inhibition at 1 µM: Table 6, percent c-MET inhibition at 1 μM, read-out: % inhibition; for inhibition at 0.05 µM: Table 5, percent c-MET inhibition at 50 nM; for I(%): Table 3, Ki(μM) or I(%), test concentration not given

T1 sequence (P08581 974-1390 limits assumed): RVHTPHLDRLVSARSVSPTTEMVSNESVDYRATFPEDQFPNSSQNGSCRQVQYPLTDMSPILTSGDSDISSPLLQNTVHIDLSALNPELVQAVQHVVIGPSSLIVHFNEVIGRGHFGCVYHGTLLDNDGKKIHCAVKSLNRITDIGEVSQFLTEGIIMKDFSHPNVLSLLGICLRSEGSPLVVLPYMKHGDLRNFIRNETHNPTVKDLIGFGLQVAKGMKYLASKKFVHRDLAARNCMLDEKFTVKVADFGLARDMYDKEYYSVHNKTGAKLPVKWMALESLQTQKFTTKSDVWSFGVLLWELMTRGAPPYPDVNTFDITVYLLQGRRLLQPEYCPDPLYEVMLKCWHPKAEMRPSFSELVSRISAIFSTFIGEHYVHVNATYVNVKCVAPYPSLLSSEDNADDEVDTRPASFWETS

| SMILES | inhibition at 1 µM [%] | % inhibition | further results |
| --- | --- | --- | --- |
| CC(C)Cc1noc(COc2cc(-c3ccc(C(=O)N4CCC(N5CCCC5)CC4)cc3)cnc2N)n1 |  | % inhibition = 12 |  |
| CC(Oc1cc(-c2ccc(C(=O)N[C@H](CO)C(C)C)cc2)cnc1N)c1c(Cl)ccc(F)c1Cl (stereo partly drawn) |  |  | inhibition at 0.05 µM: 74% |
| Nc1ncc(-c2ccc(C(=O)N3CCC(N4CCCC4)CC3)cc2)cc1OCc1ccc(C(=O)NCc2ccccn2)cc1 |  | % inhibition = 7 |  |
| Cc1onc(-c2ccccc2)c1COc1cc(-c2ccc(C(=O)N3CCC(N4CCCC4)CC3)cc2)cnc1N |  | % inhibition = 19 |  |
| Cc1cc(C)c(C)c(COc2cc(-c3ccc(C(=O)N4CCC(N5CCCC5)CC4)cc3)cnc2N)c1C [Example I-654, {4-[6-Amino-5-(2,3,5,6-tetramethyl-benzyloxy)-pyridin-3-yl]-phenyl)-(4-pyrrolidin-1-yl-piperidin-1-yl)-methanone] |  |  | I(%): 9% |
| Nc1ncc(-c2ccc(C(=O)N3CCC(N4CCCC4)CC3)cc2)cc1OCc1nc(NC2CC2)c2ccccc2n1 |  | % inhibition = 6 |  |
| Cc1noc([C@H]2CC[C@H](CNC(=O)c3ccc(-c4cnc(N)c(OC(C)c5c(Cl)ccc(F)c5Cl)c4)cc3)CC2)n1 (stereo partly drawn) |  |  | inhibition at 0.05 µM: 51% |
| Cc1cc(=O)n2nc(COc3cc(-c4ccc(C(=O)N5CCC(N6CCCC6)CC5)cc4)cnc3N)nc2[nH]1 |  | % inhibition = 18 |  |
| Nc1ncc(C(=O)NC2CCCNC2=O)cc1OCc1c(Cl)cccc1Cl (stereo not drawn) | 16 |  |  |
| Nc1ncc(-c2ccc(C(=O)N3CCC(N4CCCC4)CC3)cc2)cc1OCc1c(F)ccc(F)c1Cl |  | % inhibition = 50 |  |
| Cc1noc([C@H]2CC[C@H](CNC(=O)c3cnc(N)c(OCc4c(Cl)cccc4Cl)c3)CC2)n1 | 3 |  |  |
| Cc1ccccc1COc1cc(-c2ccc(C(=O)N3CCC(N4CCCC4)CC3)cc2)cnc1N [Example I-627, {4-[6-Amino-5-(2-methyl-benzxloxy)-pyridin-3-yl]-phenyl}-(4-pyrrolidin-1-yl-piperidin-1-yl)-methanone] |  |  | I(%): 6% |
| COCOc1ccc(S(=O)(=O)c2ccc(COc3cc(-c4ccc(C(=O)N5CCC(N6CCCC6)CC5)cc4)cnc3N)cc2)cc1 |  | % inhibition = 18 |  |
| CCC(CO)NC(=O)c1ccc(-c2cnc(N)c(OC(C)c3c(Cl)ccc(F)c3Cl)c2)cc1 (stereo not drawn) |  |  | inhibition at 0.05 µM: 73% |
| Cc1nc(COc2cc(-c3ccc(C(=O)N4CCC(N5CCCC5)CC4)cc3)cnc2N)n(C)n1 |  | % inhibition = 14 |  |
| Nc1ncc(C(=O)NCCc2ccc(O)cc2)cc1OCc1c(Cl)cccc1Cl | 34 |  |  |
| Nc1ncc(-c2ccc(C(=O)N3CCC(N4CCCC4)CC3)cc2)cc1OCc1cc(F)cc(F)c1 |  | % inhibition = 14 |  |
| CC(Oc1cc(-c2ccc(C(=O)N[C@H](C)C3CCCCC3)cc2)cnc1N)c1c(Cl)ccc(F)c1Cl (stereo partly drawn) [drawing 1068] |  |  | inhibition at 0.05 µM: 60% |
| Nc1ncc(-c2ccc(C(=O)N3CCC(N4CCCC4)CC3)cc2)cc1OCc1ccc(C(=O)NCCCN2CCCC2=O)cc1 |  | % inhibition = 11 |  |

| SMILES | inhibition at 1 µM [%] | % inhibition | further results |
| --- | --- | --- | --- |
| C[C@@H]1CN(C(=O)c2ccc(-c3cnc4c(c3)OC(c3ccccc3)C(=O)N4)cc2)C[C@H](C)N1 (stereo partly drawn) [Example I-618, 7-(4-(3,5-Dimethyl-piperazine-1-carbonyl)-phenyl]-2-phenyl-4H-pyrido[3,2-b](1,4]oxazin-3-one] |  |  | I(%): 0% |
| Nc1ncc(-c2ccc(C(=O)N3CCC(N4CCCC4)CC3)cc2)cc1OCc1csc2ccc(Cl)cc12 |  | % inhibition = 37 |  |
| N#Cc1ccc(COc2cc(-c3ccc(C(=O)N4CCC(N5CCCC5)CC4)cc3)cnc2N)cc1 |  | % inhibition = 8 |  |
| Nc1ncc(-c2ccc(C(=O)N3CCC(N4CCCC4)CC3)cc2)cc1OCc1ccc(S(=O)(=O)N2CCOCC2)cc1 |  | % inhibition = 14 |  |
| Cc1cnccc1COc1cc(-c2ccc(C(=O)N3CCC(N4CCCC4)CC3)cc2)cnc1N |  | % inhibition = 11 |  |
| Cc1ccc(F)c(COc2cc(-c3ccc(C(=O)N4CCC(N5CCCC5)CC4)cc3)cnc2N)c1F |  | % inhibition = 51 |  |
| Nc1ncc(C(=O)NCc2ccc(OC(F)F)cc2)cc1OCc1c(Cl)cccc1Cl | 26 |  |  |
| Nc1ncc(-c2ccc(C(=O)N3CCC(N4CCCC4)CC3)cc2)cc1OCc1ccc2ccc(Cl)cc2n1 |  | % inhibition = 24 |  |
| Nc1ncc(-c2ccc(C(=O)N3CCC(N4CCCC4)CC3)cc2)cc1OCc1ccc(S(N)(=O)=O)cc1 |  | % inhibition = 17 |  |
| Nc1ncc(-c2ccc(C(=O)N3CCC(N4CCCC4)CC3)cc2)cc1OCc1cc(C(F)(F)F)ccc1Cl |  | % inhibition = 26 |  |
| CCC1CCCCN1C(=O)c1ccc(-c2cnc(N)c(OC(C)c3c(Cl)ccc(F)c3Cl)c2)cc1 (stereo not drawn) |  |  | inhibition at 0.05 µM: 56% |
| Nc1ncc(C(=O)NCCO)cc1OCc1c(Cl)cccc1Cl | 34 |  |  |
| Nc1ncc(C(=O)NCC(O)CN2CCC(Cc3ccccc3)CC2)cc1OCc1c(Cl)cccc1Cl (stereo not drawn) | 32 |  |  |
| Nc1ncc(-c2ccc(C(=O)N3CCC(N4CCCC4)CC3)cc2)cc1OCC1CCCCC1 [Example I-628, [4-(6-Amino-5-cyclohexylmethoxy-pyridin-3-yl)-phenyl]-(4-pyrrolidin-1-yl-piperidin-1-yl)-methanone] |  |  | I(%): 7% |
| Cc1ccccc1-c1cnc(N)c(OC(C)c2c(Cl)ccc(F)c2Cl)c1 (stereo not drawn) [Example I-565, 3-[1-(2,6-Dichloro-3-fluoro-phenyl)-ethoxy]-5-o-tolyl-pyridin-2-ylamine] |  |  | I(%): 25% |
| CN(CC(N)=O)C(=O)c1cnc(N)c(OCc2c(Cl)cccc2Cl)c1 | 39 |  |  |
| CC(Oc1cc(-c2ccccc2C(F)(F)F)cnc1N)c1c(Cl)ccc(F)c1Cl (stereo not drawn) [Example I-559, 3-[1-(2,6-Dichloro-3-fluoro-phenyl)-ethoxy]-5-(2-trifluoromethyl-phenyl)-pyridin-2-ylamine] |  |  | I(%): 4% |
| COc1c(C)cnc(COc2cc(-c3ccc(C(=O)N4CCC(N5CCCC5)CC4)cc3)cnc2N)c1C |  | % inhibition = 20 |  |
| CC(Oc1cc(-c2ccc(C(=O)N3CCC(N4CCCC4)CC3)cc2)cnc1N)c1ccc(C(=O)NC2CCN(Cc3ccccc3)CC2)cc1 (stereo not drawn) [Example I-631] |  |  | I(%): 3% |

Further lines, with some results ahead:

| inhibition at 1 µM [%] | % inhibition | SMILES | further results |
| --- | --- | --- | --- |
| 26 |  | Nc1ncc(C(=O)NCCCO)cc1OCc1c(Cl)cccc1Cl |  |
| 32 |  | C[C@@H]1CN(C(=O)c2cnc(N)c(OCc3c(Cl)cccc3Cl)c2)C[C@H](C)O1 |  |
|  | % inhibition = 16 | Nc1ncc(-c2ccc(C(=O)N3CCC(N4CCCC4)CC3)cc2)cc1OCc1cn2cc(Cl)ccc2n1 |  |
| 23 |  | Nc1ncc(C(=O)N[C@@H]2c3ccccc3C[C@@H]2O)cc1OCc1c(Cl)cccc1Cl |  |
|  | % inhibition = 9 | Nc1ncc(-c2ccc(C(=O)N3CCC(N4CCCC4)CC3)cc2)cc1OCc1ncccn1 |  |
|  | % inhibition = 16 | Cc1cc(COc2cc(-c3ccc(C(=O)N4CCC(N5CCCC5)CC4)cc3)cnc2N)no1 |  |
|  | % inhibition = 8 | Nc1ncc(-c2ccc(C(=O)N3CCC(N4CCCC4)CC3)cc2)cc1OCc1ncc(C(F)(F)F)cc1Cl |  |
| 33 |  | Nc1ncc(C(=O)NCc2ccc(F)cc2F)cc1OCc1c(Cl)cccc1Cl |  |
| 72 |  | Nc1ncc(C(=O)N2CCC(Cc3cnccn3)CC2)cc1OCc1c(Cl)cccc1Cl |  |
| 19 |  | Cc1cc(CCC2COC3(CCN(C(=O)c4cnc(N)c(OCc5c(Cl)cccc5Cl)c4)CC3)C2)no1 (stereo not drawn) |  |
| 26 |  | Nc1ncc(C(=O)N2CCN(Cc3cccc4ccccc34)CC2)cc1OCc1c(Cl)cccc1Cl |  |
| 11 |  | Nc1ncc(C(=O)N2CCC(Cc3cccc(CO)c3)CC2)cc1OCc1c(Cl)cccc1Cl |  |
|  | % inhibition = 21 | Nc1ncc(-c2ccc(C(=O)N3CCC(N4CCCC4)CC3)cc2)cc1OCc1cc(F)cc2c1OCOC2 |  |
|  | % inhibition = 17 | Cc1cnc2nc(COc3cc(-c4ccc(C(=O)N5CCC(N6CCCC6)CC5)cc4)cnc3N)nn2c1 |  |
|  | % inhibition = 23 | CN(C)c1ccc(NC(=O)c2cccc(COc3cc(-c4ccc(C(=O)N5CCC(N6CCCC6)CC5)cc4)cnc3N)c2)cc1 |  |
|  | % inhibition = 18 | Nc1ncc(-c2ccc(C(=O)N3CCC(N4CCCC4)CC3)cc2)cc1OCc1ccc(F)cc1F |  |
|  | % inhibition = 4 | Nc1ccc(-c2ccc(C(=O)N3CCC(N4CCCC4)CC3)cc2)cc1OC1OC(=O)c2ccccc21 (stereo not drawn) |  |

| inhibition at 1 µM [%] | % inhibition | SMILES | further results |
| --- | --- | --- | --- |
|  | % inhibition = 8 | CCOC(=O)c1nc(COc2cc(-c3ccc(C(=O)N4CCC(N5CCCC5)CC4)cc3)cnc2N)no1 |  |
| 41 |  | CCc1ccc(COCC2CCN(C(=O)c3cnc(N)c(OCc4c(Cl)cccc4Cl)c3)CC2)nc1 |  |
|  | % inhibition = 24 | Nc1ncc(-c2ccc(C(=O)N3CCC(N4CCCC4)CC3)cc2)cc1OCc1cc(F)ccc1Br |  |
| 30 |  | CCCC(CO)NC(=O)c1cnc(N)c(OCc2c(Cl)cccc2Cl)c1 (stereo not drawn) |  |
|  | % inhibition = 63 | Cn1nc(-c2ccccc2)c(COc2cc(-c3ccc(C(=O)N4CCC(N5CCCC5)CC4)cc3)cnc2N)c1Cl |  |
|  | % inhibition = 18 | COC(=O)Nc1cc(COc2cc(-c3ccc(C(=O)N4CCC(N5CCCC5)CC4)cc3)cnc2N)on1 |  |
|  | % inhibition = 5 | CCc1nc(COc2cc(-c3ccc(C(=O)N4CCC(N5CCCC5)CC4)cc3)cnc2N)no1 |  |
| 26 |  | CN(CCS(C)(=O)=O)C(=O)c1cnc(N)c(OCc2c(Cl)cccc2Cl)c1 |  |
|  | % inhibition = 13 | Nc1ncc(-c2ccc(C(=O)N3CCC(N4CCCC4)CC3)cc2)cc1OCc1cccc(OC(F)(F)F)c1 |  |
|  | % inhibition = 8 | Cc1oc(-c2cccc(F)c2)nc1COc1cc(-c2ccc(C(=O)N3CCC(N4CCCC4)CC3)cc2)cnc1N |  |
|  | % inhibition = 7 | Nc1ncc(-c2ccc(C(=O)N3CCC(N4CCCC4)CC3)cc2)cc1OCc1nc(NCCO)c2ccccc2n1 |  |
| 27 |  | Nc1ncc(C(=O)N2CCC3(CCNC3=O)CC2)cc1OCc1c(Cl)cccc1Cl |  |
| 31 |  | Nc1ncc(C(=O)NCCN2CCOCC2)cc1OCc1c(Cl)cccc1Cl |  |
| 18 |  | CN(C)C(CNC(=O)c1cnc(N)c(OCc2c(Cl)cccc2Cl)c1)c1cccnc1 (stereo not drawn) |  |
|  | % inhibition = 15 | CCOC(=O)CCNS(=O)(=O)c1ccc(COc2cc(-c3ccc(C(=O)N4CCC(N5CCCC5)CC4)cc3)cnc2N)cc1 |  |
| 74 |  | CCC(CC)CN1CCC2(CC1)CC(NC(=O)c1cnc(N)c(OCc3c(Cl)cccc3Cl)c1)CO2 (stereo not drawn) |  |
| 35 |  | CC(=O)NCCNC(=O)c1cnc(N)c(OCc2c(Cl)cccc2Cl)c1 |  |
